From patent US20100120708A1, “Combination therapy comprising ZD6474 and gemcitabine for anti-cancer therapy” (priority 2002, published 2010) come the findings set out here.

The test system of the data set is L 3.6 μl human pancreatic cancer cells. Put plainly: Effects of ZD6474 and gemcitabine therapy on primary pancreatic tumour growth and metastases growing orthotopically in nude mice. Format: in vivo. Particulars: sacrificed day 32, ZD6474 50 mg/kg oral daily, gemcitabine 100 mg/kg i.p. twice weekly; for Incidence Pancreas (incidence of pancreatic tumours): orthotopic injection into pancreas, treatment from 8 days post-tumour injection; for Incidence Pancreas (incidence of pancreatic tumours) / LN Met (incidence of lymph node metastases) / Liver Met (incidence of liver metastases) / Peritoneal Carcinosis (incidence): animals affected/animals in group; for LN Met (incidence of lymph node metastases) / Liver Met (incidence of liver metastases) / Peritoneal Carcinosis (incidence): orthotopic; for Tumour Weight Average +/− std dev: primary pancreatic tumour weight, control 1231 mg; for Body Weight Average +/− std dev: control 21.4 g. The procedure: Model to Investigate Effects of ZD6474 and Gemcitabine Therapy on Primary Pancreatic Tumour Growth and Metastases Growing Orthotopically in Nude Mice
Nude mice (n=10 per group) were injected with 1×10^6 […] human pancreatic cancer cells into the pancreas. The mice received one of the following treatment regimes 8 days post-tumour injection:
Group 1—control group received saline by daily oral application; Group 2—a single daily dose of ZD6474 (50 mg/kg oral gavage); Group 3—gemcitabine twice weekly (on days 2 and 5 of each treatment week) (100 mg/kg by intraperitoneal injection (i.p.)); Group 4—a single daily dose of ZD6474 (50 mg/kg oral gavage) and twice weekly gemcitabine (on days 2 and 5 of each treatment week) (GEM: 100 mg/kg i.p.).
The animals were sacrificed 32 days after tumour cell injection.
The incidence of pancreatic tumours, liver metastases, lymph node metastases and peritoneal carcinosis was evaluated. The primary pancreatic tumour weight was measured. All macroscopically enlarged lymph nodes and liver nodules were confirmed by histopathology (H&E staining).

Where “and” joins values, the source holds several entries; their conditions need not be identical. Equal entries are not always repeated. Structures can show the parent of a compound that is named as a salt.

Turning to `Nc1ccn([C@@H]2O[C@H](CO)[C@@H](O)C2(F)F)c(=O)n1` [Gemcitabine, 2′-deoxy-2′,2′-difluorocytidine monohydrochloride (β-isomer)], the “Incidence Pancreas (incidence of pancreatic tumours)” value is reported as 9/9, the “LN Met (incidence of lymph node metastases)” value is given as 9/9, the “Liver Met (incidence of liver metastases)” value is given as 4/9 and the “Peritoneal Carcinosis (incidence)” value is recorded as 3/9. Further, the “Tumour Weight Average +/− std dev” value is 836 ± 291 mg and the “Body Weight Average +/− std dev” value came out at 21.7 ± 2.1 g. Also, the “Tumour Weight Average +/− std dev” value (listed as gemcitabine) is recorded as 836 mg.
For the compound `COc1cc2c(Nc3ccc(Br)cc3F)ncnc2cc1OCC1CCN(C)CC1` [ZD6474, 4-(4-bromo-2-fluoroanilino)-6-methoxy-7-(1-methylpiperidin-4-ylmethoxy)quinazoline], the “Incidence Pancreas (incidence of pancreatic tumours)” value was 10/10, the “LN Met (incidence of lymph node metastases)” value was 3/10, the “Liver Met (incidence of liver metastases)” value was 1/10 and the “Peritoneal Carcinosis (incidence)” value is 1/10. The “Tumour Weight Average +/− std dev” value was 541 mg and 541 ± 201 mg; the “Body Weight Average +/− std dev” value was determined as 19.2 ± 2.9 g.
